Data as given in patent US11318157B2, “6-6 bicyclic aromatic ring substituted nucleoside analogues for use as PRMT5 inhibitors” (Janssen Pharmaceutica NV, priority 2015, dated 2022).

Experiments:
PRMT5-MEP50 enzyme [1] = target: T1, PRMT5-MEP50 enzyme (Homo sapiens, UniProt O14744); experiment: In vitro assay 1a: high throughput mass spectrometer assay of SAH formation, 10 nM enzyme, 60 min; assay type: biochemical; details: averaged values, PRMT5-MEP50, 10 nM enzyme
T1 construct: One virus expresses full length human PRMT5 with Flag-tag at N-terminus; Flag (N); purchased Charles River (Argenta); host or cells: insect cells (Sf9), baculovirus co-infection
T1 sequence (O14744 whole entry): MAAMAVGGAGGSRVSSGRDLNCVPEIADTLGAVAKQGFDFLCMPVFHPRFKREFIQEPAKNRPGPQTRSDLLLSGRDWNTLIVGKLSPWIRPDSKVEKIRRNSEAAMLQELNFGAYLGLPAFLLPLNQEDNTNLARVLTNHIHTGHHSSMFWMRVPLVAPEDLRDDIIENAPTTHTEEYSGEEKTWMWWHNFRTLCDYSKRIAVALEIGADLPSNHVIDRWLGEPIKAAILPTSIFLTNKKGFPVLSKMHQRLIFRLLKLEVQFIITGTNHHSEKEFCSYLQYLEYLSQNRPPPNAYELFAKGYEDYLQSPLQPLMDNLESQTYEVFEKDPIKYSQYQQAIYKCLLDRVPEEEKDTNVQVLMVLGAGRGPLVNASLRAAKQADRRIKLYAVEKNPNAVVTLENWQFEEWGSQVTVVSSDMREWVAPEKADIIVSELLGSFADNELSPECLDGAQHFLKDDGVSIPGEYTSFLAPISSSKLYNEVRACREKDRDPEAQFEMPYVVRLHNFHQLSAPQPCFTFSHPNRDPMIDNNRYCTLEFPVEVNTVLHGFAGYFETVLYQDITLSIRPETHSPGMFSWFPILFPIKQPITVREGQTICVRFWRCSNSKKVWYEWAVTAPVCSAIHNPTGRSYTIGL
T1 sequence (Q9BQA1 whole entry partner): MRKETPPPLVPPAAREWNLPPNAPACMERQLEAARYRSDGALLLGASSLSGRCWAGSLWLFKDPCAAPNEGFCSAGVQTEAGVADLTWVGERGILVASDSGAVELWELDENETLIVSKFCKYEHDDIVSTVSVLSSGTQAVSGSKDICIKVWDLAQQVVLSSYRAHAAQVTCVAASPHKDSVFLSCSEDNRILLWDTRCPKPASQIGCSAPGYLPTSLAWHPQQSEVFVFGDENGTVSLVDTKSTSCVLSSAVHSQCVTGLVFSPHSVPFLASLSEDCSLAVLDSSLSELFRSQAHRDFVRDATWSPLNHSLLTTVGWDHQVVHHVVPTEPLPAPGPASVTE
Description: Experimental Procedures In Vitro Assay (Assay 1a and 1b)
PRMT5-MEP50 enzyme was purchased from Charles River (Argenta). The enzyme complex was produced in insect cells (Sf9) infected simultaneously with two baculoviruses. One virus expresses full length human PRMT5 with Flag-tag at N-terminus, the second virus expresses full length MEP50 with His6-TEV cleavage at N-terminus. The protein was affinity purified using anti-Flag (M2) beads eluted with 3×FLAG peptide, followed by His-Select eluted with 0.5M imidazole. Eluted protein was then dialysed against tris-buffered saline (TBS) (pH 8.0) containing 20% glycerol and 3 mM dithiothreitol (DTT).
Full-length untagged human recombinant histone H2A (residues 1-130, Genbank Accession #NM_021052 MW=14.1 kDa) expressed in E. coli was purchased from Reaction Biology Corporation, Cat #HMT-11-146. Reagents used for making reaction buffer or stopping reaction were purchased including Tris base (Sigma Cat #T-1503), NaCl (Sigma Cat #RGF-3270), MgCl2 (Sigma Cat #M0250), DTTI (Invitrogen Cat #15508-013) and Formic Acid (Riedel deHaen, Cat #33015)
High Throughput Mass Spectrometer Assay
PRMT5 catalyzes the sequential methylations of the terminal nitrogen atoms on the guanidine groups of arginine residues within proteins using co-substrate S-adenosyl-L-methionine (AdoMet, SAM), forming mono-methyl (MMA), symmetric-dimethyl arginine (sDMA) and S-adenosyl-L-homocysteine (AdoHcy, SAH). The enzyme activity was determined by following the product SAH formation using high throughput mass spectrometry (Agilent Rapidfire 300 System coupled to a Sciex 4000 series QTrap® triple-quad MS/MS). The reaction buffer was 20 mM Tris-HCl, pH 8.5, 50 mM NaCl, 5 mM MgCl2 and 1 mM DTT. The reaction activity was stopped using 1% formic acid (final concentration).
The IC50 Studies were performed using eleven point dosing series made for each compound by serially diluted 1:2 in dimethyl sulfoxide (DMSO), with point 12 being a DMSO control. Compounds were first spotted to plates, and followed by addition of 2 μM SAM and 0.6 μM H2A (histone H2A) solution mixture. The same volume of enzyme solution was added to initiate the enzymatic reactions. The final concentrations of the reaction are at 1 μM SAM, 0.3 μM H2A and 10 nM enzyme (assay 1a) or 1.25 nM enzyme (assay 1b). The reaction was incubated at 30° C. for 60 minutes (min) when 10 nM enzyme was used and for 120 min when 1.25 nM enzyme was used. Subsequently, the reaction was quenched by addition of formic acid to a final concentration of 1%. The inhibitions of SAH formation in the presence of compounds were calculated as a percentage of the control relative to the uninhibited reaction as a function of inhibitor concentration. The data were fit as follows: Y=Bottom+(Top−Bottom)/(1+10^((log IC50−X)*h))
where IC50 is the inhibitor concentration (same unit as X) at 50% inhibition and h is the Hill slope. Y is percent of inhibition, X is log of compound concentration. Bottom and Top are the plateaus in same units as Y.

PRMT5-MEP50 enzyme [2] = target: T1, PRMT5-MEP50 enzyme; experiment: In vitro assay 1b: high throughput mass spectrometer assay of SAH formation, 1.25 nM enzyme, 120 min; assay type: biochemical
How it was run: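 SAH product measured by RapidFire mass spectrometry after formic acid stop; IC50 from 11-point 1:2 dilutions, four-parameter fit. Reactions at 30 °C in 20 mM Tris pH 8.5 with 1 μM SAM, 0.3 μM H2A: assay 1a 10 nM PRMT5-MEP50, 60 min; assay 1b 1.25 nM, 120 min.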

[3] = tested on: nuclear symmetric Arginine dimethylation in A549 cells; experiment: PD assay (assay 2): inhibition of nuclear symmetric Arginine dimethylation (SYM10 immunohistochemistry), 48 h; assay type: cell-based; details: Homo sapiens, A549, averaged values; PD assay, A549 cells, symmetric Arginine dimethylation; read-out: pIC50 Assay 2 (converted)
How it was run: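 Cells seeded at 400/well overnight, then treated 48 h at 37 °C, final DMSO 0.2%. Fixed and stained with SYM10 antibody plus Alexa 488 secondary, Hoechst and CellMask, then imaged on Opera. Normalized to DMSO (high) and 10 μM reference compound (low); averaged pIC50 reported.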

[4] = read-out: pIC50 Assay 1a (converted)
[5] = averaged values, PRMT5-MEP50, 1.25 nM enzyme, 120 min, read-out: pIC50 Assay 1b (converted)

Structure (SMILES) | IC50 (PRMT5-MEP50 enzyme [1]; [4]) [nM] | IC50 (PRMT5-MEP50 enzyme [2]; [5]) [nM] | IC50 [3] [nM] | IC50 (PRMT5-MEP50 enzyme [1]; pIC50 Assay 1a) [nM] | IC50 (PRMT5-MEP50 enzyme [2]) [nM]
Nc1nc(Cl)nc2c1ccn2[C@@H]1O[C@H](COc2ccc3cc(Cl)cnc3c2)[C@@H](O)[C@H]1O [Compound 4] | 63.1 | 200 | ~617 |  | 
CNc1ccc2ccc(CC[C@H]3C[C@@H](n4ccc5c(C)ncnc54)[C@H](O)[C@@H]3O)cc2n1 [Compound 176] | 0.501 | 3.98 | 3.16 |  | 
Nc1ncnc2c1ccn2[C@@H]1C[C@H](CCc2ccc3ccc(NCC(F)(F)F)nc3c2)[C@@H](O)[C@H]1O [Compound 151] | 0.794 | 15.8 | 5.01 |  | 
CC(C)C(=O)O[C@@H]1[C@H](OC(=O)C(C)C)[C@@H](COc2ccc3cc(Br)cnc3c2)O[C@H]1n1ccc2c(N)ncnc21 [Compound 73] | > 10000 | > 100000 | 100 |  | 
Nc1ncnn2c([C@@H]3O[C@H](/C=C/c4ccc5cccnc5c4)[C@@H](O)[C@H]3O)ccc12 [Compound 61] | 398 | 1000 | ~1320 |  | 
CN(C)Cc1ccc2ccc(OC[C@H]3O[C@@H](n4ccc5c(N)ncnc54)[C@H](O)[C@@H]3O)cc2n1 [Compound 97] | > 10000 | 15800 | > 10000 |  | 
Nc1ncc2ccc(CC[C@H]3C[C@@H](n4ccc5c(Cl)ncnc54)[C@H](O)[C@@H]3O)cc2n1 [Compound 215] | 7.94 | 39.8 | 1260 |  | 
Nc1ncnc2c1ccn2[C@@H]1C[C@H](/C=C/c2ccc3cccnc3c2)[C@@H](O)[C@H]1O [Compound 55] |  |  | ~51.3 | 7.94 | 31.6
Nc1ncnc2c1ncn2[C@@H]1O[C@H](COc2ccc3cc(Br)cnc3c2)[C@@H](O)[C@H]1O [Compound 220] | 316 | 501 | 2510 |  | 
CC(C)C(=O)O[C@@H]1[C@H](OC(=O)C(C)C)[C@@H](COc2ccc3cccnc3c2)O[C@H]1n1ccc2c(N)ncnc21 [Compound 89] | > 10000 | 31600 | 63.1 |  | 
Nc1ncnc2c1ccn2[C@@H]1O[C@H](CCc2ccc3ccc(NCc4ccc(Cl)cc4)nc3c2)[C@@H](O)[C@H]1O [Compound 135] | 1 | 6.31 | ~2.82 |  | 
Nc1ncnc2c1ccn2[C@@H]1C[C@H](Cc2ccc3ccncc3c2)[C@@H](O)[C@H]1O [Compound 95] | 316 | 501 | > 10000 |  | 
Nc1ncnc2c1ccn2[C@@H]1O[C@H](COc2cccc3cnccc23)[C@@H](O)[C@H]1O [Compound 6] | 3160 | 5010 | > 10000 |  | 
NC(=O)c1ccc2ccc(OC[C@H]3O[C@@H](n4ccc5c(N)ncnc54)[C@H](O)[C@@H]3O)cc2n1 [Compound 245] | 2000 | 3160 | > 20000 |  | 
Nc1ncnc2c1ccn2[C@@H]1O[C@H](COc2cc3ncccc3cc2C(F)(F)F)[C@@H](O)[C@H]1O [Compound 38] | 200 | 398 | 794 |  | 
Nc1ncnc2c1ccn2[C@@H]1O[C@H](COc2cc3ncc(Br)cc3cc2F)[C@@H](O)[C@H]1O [Compound 106] | 63.1 | 158 | 398 |  | 
Cc1cnc2cc(CC[C@H]3O[C@@H](n4ccc5c(N)ncnc54)[C@H](O)[C@@H]3O)ccc2c1 [Compound 123] | 5.01 | 39.8 | 31.6 |  | 
COc1ncnc2c1ccn2[C@@H]1O[C@H](CCc2ccc3ccc(NCC4CC4)nc3c2)[C@@H](O)[C@H]1O [Compound 191] | 200 | 631 | 1260 |  | 

Structure (SMILES) | IC50 (PRMT5-MEP50 enzyme [1]; [4]) [nM] | IC50 (PRMT5-MEP50 enzyme [2]; [5]) [nM] | IC50 [3] [nM] | IC50 (PRMT5-MEP50 enzyme [1]; pIC50 Assay 1a) [nM] | IC50 (PRMT5-MEP50 enzyme [2]) [nM]
CC(C)c1cnc2cc(OC[C@H]3O[C@@H](n4ccc5c(N)ncnc54)[C@H](O)[C@@H]3O)ccc2c1 [Compound 214] | 31.6 | 100 | 398 |  | 
O[C@@H]1[C@H](O)[C@@H](CCc2ccc3ccc(NCc4ccc(Cl)cc4)nc3c2)O[C@H]1n1ccc2c(Cl)ncnc21 [Compound 127] | 12.6 | 100 | 126 |  | 
Nc1ncnc2c1ccn2[C@@H]1C[C@H](COc2ccc3cc(Br)cnc3c2)[C@@H](O)[C@H]1O [Compound 47] | 25.1 | 63.1 | 50.1 |  | 
N#Cc1cnc2cc(OC[C@H]3O[C@@H](n4ccc5c(N)ncnc54)[C@H](O)[C@@H]3O)ccc2c1Cl [Compound 28] | > 10000 | 7940 | > 20000 |  | 
Nc1ncnc2c1ccn2[C@@H]1O[C@H](COc2cnc3ccccc3c2)[C@@H](O)[C@H]1O [Compound 10] | 3160 | 3980 | ~7080 |  | 
Cc1ncnc2c1ccn2[C@@H]1C[C@H](CCc2ccc3ccc(NCc4ccc(Cl)cc4)nc3c2)[C@@H](O)[C@H]1O [Compound 193] | 1 | 7.94 | 3.16 |  | 
Nc1ncnc2c1ccn2[C@@H]1O[C@H](COc2cccc3cccnc23)[C@@H](O)[C@H]1O [Compound 8] | 6310 | 12600 | > 10000 |  | 
Nc1ncnc2c1ccn2[C@@H]1C[C@H](CCc2ccc3ccc(NCc4ccc(Cl)cc4)nc3c2)[C@@H](O)[C@H]1O [Compound 124] | 2 | 5.01 | 0.631 |  | 
Nc1ncnc2c1ccn2[C@@H]1C[C@H](COc2ccc3cc(Cl)cnc3c2)[C@@H](O)[C@H]1O [Compound 222] | 31.6 | 63.1 | ~174 |  | 
O[C@@H]1[C@@H](CCc2ccc3ccc(NCC4CC4)nc3c2)C[C@@H](n2ccc3cncnc32)[C@@H]1O [Compound 166] | 1 | 5.01 | 1 |  | 
Nc1ncnc2c1ccn2[C@@H]1O[C@H](COc2ccc3cccnc3n2)[C@@H](O)[C@H]1O [Compound 17] | 1000 | 1580 | 7940 |  | 
N#Cc1cnc2cc(OC[C@H]3O[C@@H](n4ccc5c(N)ncnc54)[C@H](O)[C@@H]3O)ccc2c1 [Compound 98] | 631 | 1580 | 10000 |  | 
Nc1ncnc2c1ccn2[C@@H]1C[C@H](CCc2ccc3cnc(NCC4CC4)nc3c2)[C@@H](O)[C@H]1O [Compound 141] | 7.94 | 50.1 | 63.1 |  | 
Nc1ncnc2c1ccn2[C@@H]1O[C@H](COc2ccc3cc(C(F)(F)F)cnc3c2)[C@@H](O)[C@H]1O [Compound 27] | 398 | 794 | ~1150 |  | 
Cc1ccc2ccc(OC[C@H]3O[C@@H](n4ccc5c(N)ncnc54)[C@H](O)[C@@H]3O)cc2n1 [Compound 21] | 1260 | 1580 | 5010 |  | 
O[C@@H]1[C@H](O)[C@@H](COc2ccc3ccc(NCC4CC4)nc3c2)O[C@H]1n1ccc2cncnc21 [Compound 170] | 6.31 | 63.1 | 79.4 |  | 
Nc1ncnc2c1ccn2[C@@H]1C[C@H](Cc2ccc3cccnc3c2)[C@@H](O)[C@H]1O [Compound 66] | 2000 | 5010 | > 20000 |  | 
